Structures can show the parent of a compound that is named as a salt.
How the values were obtained:
[1] = system: stomach lesions in the rat; assay: Annamalai-Ma gastrointestinal irritation rat model; format: in vivo; settings: rats, oral 180 mg-equivalents MMF/kg once per day for 4 days; score 0 (normal mucosa) to 5 (severe ulceration), Table 4
Description: At least one MMF prodrug, e.g., dimethyl fumarate, is known to cause gastrointestinal irritation. The Annamalai-Ma gastrointestinal irritation rat model is predictive of gastrointestinal irritation of MMF prodrugs in humans. This animal model has several common features of other published GI irritation animal models including the Whiteley-Dalrymple model described in Models of Inflammation: Measuring Gastrointestinal Ulceration in the Rat, Pharmacology (1998) 10.2.1-10.2.4; as well as the animal models disclosed in Joseph J. Bertone, DVM, MS, DipACVIM. Prevalence of Gastric Ulcers in Elite, Heavy Use Western Performance Horses, AAEP Proceedings/Vol. 46/2000; and İsbíl Büyükcoskun N., Central Effects of Glucagon-like Peptide-1 on Cold Restraint Stress-induced Gastric Mucosal Lesions, Physiol. Res. 48: 451-455, 1999.
In order to assess gastrointestinal irritation using this model, rats are treated orally with either vehicle or the MMF prodrug of the present disclosure (n=10 per group) at 180 mg-equivalents MMF/kg of animal body weight, dosed once per day for 4 days, followed by necropsy and gastrointestinal evaluation at 24 hrs after the final dose. Evans Blue dye is injected IV (tail vein) to visually emphasize any lesions in the gastrointestinal tissue.
Accordingly, rats are dosed once per day for 4 consecutive days with 180 mg-equivalents MMF/kg body weight per day. The animals are fasted overnight prior to necropsy. On Day 5, to help visualize lesions, 1 mL of 1% Evan's blue in saline is injected into the tail vein 30 minutes prior to euthanasia. The animals are euthanized by inhalation of carbon dioxide. A partial necropsy, limited to the abdominal cavities, is then performed. The stomach and small intestine are removed. Residual material is washed away, using an irrigation syringe filled with saline. The stomach is cut along the larger curvature and washed gently with normal saline, and is examined for any lesions. The stomachs are scored in accordance with the scoring system outlined in Table 4.

[2] = system: imiquimod (IMQ) mouse model of psoriasis; assay: Imiquimod (IMQ) mouse model of psoriasis; format: in vivo; settings: oral dose of 90 mg-eq MMF/kg BID for 10 days in male Balb/C mice
Experimental: Imidquimod model of skin inflammation (Fits et al The Journal of Immunology, 2009, 182: 5836-5845). 10-12 week old BALB/c, I117c+/+ or I117c−/−, or I117re+/+ or I117re−/− mice were administered 50 mg Aldara cream (5% Imidquimod in Graceway, 3M) in the shaved back and right ear daily for 5 days. Clinical scoring and ear thickness measurements were performed daily. Scoring was based upon the manifestation of psoriatic symptoms, such as erythema, scaling and thickness: 0, No disease. 1, Very mild erythema with very mild thickening and scaling involving a small area. 2, Mild erythema with mild thickening and scaling involving a small area. 3, Moderate erythema with moderate thickening and scaling (irregular and patchy) involving a small area (<25%). 4, Severe erythema with marked thickening and scaling (irregular and patchy) involving a moderate area (25-50%). 5, Severe erythema with marked thickening and scaling (irregular and patchy) involving a large area (>50%). Ear and back tissue were harvested on day 5 for histological evaluation.
Efficacy of compounds of the disclosure and DMF is compared in the imiquimod (IMQ) mouse model of psoriasis. Balb/c mice (10 males/group) received daily topical IMQ (5% cream) on shaved back and right ear for 5 days as described above. Animals received oral dose of a representative compound of the disclosure or DMF (45 or 90 mg-eq MMF/kg twice daily) or vehicle from Day −5 to Day 5. Erythema score is the primary outcome measure.
The Erythema score values of the compounds tested at an oral dose of 90 mg-eq MMF/kg BID for 10 days in male Balb/C mice are set forth in Table 3, below.

[3] = cited from earlier work

Row | SMILES | melting point [°C] | Stomach Irritation Score [1] | Erythema Score (% Relative to IMQ) [2] | Aqueous solubility [3]
1 | COC(=O)/C=C/C(=O)OCCCN1CCOCC1 (as salt: HCl) [Compound 4, Methyl(3-morpholinopropyl)fumarate HCl salt] | 185.2 |  |  | 
2 | COC(=O)/C=C/C(=O)OCCCCN1CCOCC1 (as salt: HCl) [Compound 6, Methyl(4-morpholinobutyl)fumarate HCl salt] | 145.5 |  |  | 
3 | COC(=O)/C=C/C(=O)OCCCCCN1CCOCC1 (as salt: HCl) [Compound 8, Methyl(5-morpholinopentyl)fumarate HCl salt] | 150 |  |  | 
4 | COC(=O)/C=C/C(=O)OCCCCCCN1CCOCC1 (as salt: HCl) [Compound 10, Methyl(6-morpholinohexyl)fumarate HCl salt] | 104.1 |  |  | 
5 | COC(=O)/C=C/C(=O)OCC(=O)N1CCOCC1 [CC-1, reference compound] |  | 2.9 |  | 
6 | COC(=O)/C=C/C(=O)OCCN1CCOCC1 [Compound 2, Methyl(2-morpholinoethyl)fumarate HCl salt] |  | 0 | 69 % Relative to IMQ | 
7 | COC(=O)/C=C/C(=O)OCCCN1CCOCC1 [Compound 4, Methyl(3-morpholinopropyl)fumarate HCl salt] |  | 0 | 73.3 % Relative to IMQ | 
8 | COC(=O)/C=C/C(=O)OCCCCN1CCOCC1 [Compound 6, Methyl(4-morpholinobutyl)fumarate HCl salt] |  | 0.6 | 57.1 % Relative to IMQ | 
9 | COC(=O)/C=C/C(=O)OCCCCCN1CCOCC1 [Compound 8, Methyl(5-morpholinopentyl)fumarate HCl salt] |  | 0 | 59.3 % Relative to IMQ | 
10 | COC(=O)/C=C/C(=O)OCCCCCCN1CCOCC1 [Compound 10, Methyl(6-morpholinohexyl)fumarate HCl salt] |  | 0 | 66.7 % Relative to IMQ | 
11 | COC(=O)/C=C/C(=O)OC [DMF, dimethyl fumarate, reference compound] |  | 4.6 | 74.1 % Relative to IMQ | poor

— patent publication US8952006B2, “Morpholinoalkyl fumarate compounds, pharmaceutical compositions, and methods of use” (XenoPort, Inc., priority 2012, dated 2015)
